The record followed here is ChEMBL document CHEMBL5291721, “A preclinical secondary pharmacology resource illuminates target-adverse drug reaction associations of marketed drugs” (Nat Commun, 2023).

The target in assay [1] is T1, Androgen receptor (Homo sapiens, UniProt P10275).
T1 sequence (P10275 whole entry): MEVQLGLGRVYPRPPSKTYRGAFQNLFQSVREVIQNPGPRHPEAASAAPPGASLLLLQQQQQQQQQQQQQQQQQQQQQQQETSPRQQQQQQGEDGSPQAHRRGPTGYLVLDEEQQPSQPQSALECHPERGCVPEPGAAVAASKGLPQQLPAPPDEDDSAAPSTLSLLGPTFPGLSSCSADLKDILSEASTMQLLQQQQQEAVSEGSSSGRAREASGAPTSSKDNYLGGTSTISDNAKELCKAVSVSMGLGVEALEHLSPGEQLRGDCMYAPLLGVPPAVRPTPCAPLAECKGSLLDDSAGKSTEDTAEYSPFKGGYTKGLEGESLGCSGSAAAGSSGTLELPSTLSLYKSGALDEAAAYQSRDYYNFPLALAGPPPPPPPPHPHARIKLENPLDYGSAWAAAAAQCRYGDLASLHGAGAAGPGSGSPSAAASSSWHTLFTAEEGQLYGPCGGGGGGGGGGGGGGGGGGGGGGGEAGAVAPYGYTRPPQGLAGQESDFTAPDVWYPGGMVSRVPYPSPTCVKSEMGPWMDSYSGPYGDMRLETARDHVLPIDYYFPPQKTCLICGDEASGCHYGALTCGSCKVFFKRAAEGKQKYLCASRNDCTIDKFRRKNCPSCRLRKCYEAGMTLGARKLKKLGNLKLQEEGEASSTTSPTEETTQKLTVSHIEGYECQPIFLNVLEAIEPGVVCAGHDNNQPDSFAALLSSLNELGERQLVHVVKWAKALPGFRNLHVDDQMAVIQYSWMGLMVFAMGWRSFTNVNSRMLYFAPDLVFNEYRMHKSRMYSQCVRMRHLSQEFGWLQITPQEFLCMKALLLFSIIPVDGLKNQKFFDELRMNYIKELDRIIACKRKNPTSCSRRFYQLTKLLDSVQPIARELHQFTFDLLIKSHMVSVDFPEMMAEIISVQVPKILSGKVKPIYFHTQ

Assay [2] deals with Gamma-aminobutyric acid receptor subunit alpha-1/alpha-2/beta-2/gamma-2 (Homo sapiens, UniProt P14867+P18507+P47869+P47870). The class given is protein-complex assay.
Sequence of Gamma-aminobutyric acid receptor subunit alpha-1/alpha-2/beta-2/gamma-2 (P14867 whole entry): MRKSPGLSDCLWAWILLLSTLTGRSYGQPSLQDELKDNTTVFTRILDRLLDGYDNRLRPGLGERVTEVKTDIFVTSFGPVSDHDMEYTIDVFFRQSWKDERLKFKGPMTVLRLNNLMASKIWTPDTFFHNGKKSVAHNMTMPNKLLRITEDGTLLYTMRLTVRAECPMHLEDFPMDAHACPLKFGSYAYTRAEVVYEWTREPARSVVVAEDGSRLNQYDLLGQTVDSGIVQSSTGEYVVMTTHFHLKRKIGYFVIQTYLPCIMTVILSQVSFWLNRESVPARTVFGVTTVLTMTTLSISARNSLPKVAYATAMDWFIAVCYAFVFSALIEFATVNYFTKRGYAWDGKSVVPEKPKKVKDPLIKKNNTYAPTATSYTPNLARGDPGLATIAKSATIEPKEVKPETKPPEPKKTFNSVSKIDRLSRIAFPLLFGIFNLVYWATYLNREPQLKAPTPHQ
Sequence of Gamma-aminobutyric acid receptor subunit alpha-1/alpha-2/beta-2/gamma-2 (P47870 whole entry): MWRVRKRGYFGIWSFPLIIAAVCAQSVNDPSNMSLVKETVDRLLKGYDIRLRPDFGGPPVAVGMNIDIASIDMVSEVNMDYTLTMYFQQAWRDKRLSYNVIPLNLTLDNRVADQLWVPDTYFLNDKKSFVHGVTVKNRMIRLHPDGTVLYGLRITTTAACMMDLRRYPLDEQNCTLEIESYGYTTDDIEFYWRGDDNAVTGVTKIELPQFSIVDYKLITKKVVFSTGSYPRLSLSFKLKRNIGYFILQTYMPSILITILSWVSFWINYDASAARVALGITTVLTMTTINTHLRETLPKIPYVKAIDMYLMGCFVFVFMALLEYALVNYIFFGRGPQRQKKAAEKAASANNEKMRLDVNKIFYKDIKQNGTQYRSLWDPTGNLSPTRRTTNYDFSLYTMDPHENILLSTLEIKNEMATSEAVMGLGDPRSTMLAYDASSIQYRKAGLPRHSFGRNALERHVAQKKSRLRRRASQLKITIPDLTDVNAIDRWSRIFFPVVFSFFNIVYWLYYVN
Sequence of Gamma-aminobutyric acid receptor subunit alpha-1/alpha-2/beta-2/gamma-2 (P18507 whole entry): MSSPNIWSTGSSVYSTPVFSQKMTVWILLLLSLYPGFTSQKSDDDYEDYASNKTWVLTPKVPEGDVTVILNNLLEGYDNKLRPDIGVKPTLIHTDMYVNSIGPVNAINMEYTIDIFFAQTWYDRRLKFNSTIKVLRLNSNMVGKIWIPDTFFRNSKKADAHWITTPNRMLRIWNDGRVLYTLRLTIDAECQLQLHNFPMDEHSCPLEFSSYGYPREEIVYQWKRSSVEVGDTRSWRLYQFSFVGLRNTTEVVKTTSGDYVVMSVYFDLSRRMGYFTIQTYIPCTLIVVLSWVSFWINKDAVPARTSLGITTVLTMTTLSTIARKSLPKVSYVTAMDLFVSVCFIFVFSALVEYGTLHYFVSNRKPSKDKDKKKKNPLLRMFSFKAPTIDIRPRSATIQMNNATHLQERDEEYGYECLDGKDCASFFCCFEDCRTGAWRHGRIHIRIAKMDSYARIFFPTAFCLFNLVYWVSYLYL
Sequence of Gamma-aminobutyric acid receptor subunit alpha-1/alpha-2/beta-2/gamma-2 (P47869 whole entry): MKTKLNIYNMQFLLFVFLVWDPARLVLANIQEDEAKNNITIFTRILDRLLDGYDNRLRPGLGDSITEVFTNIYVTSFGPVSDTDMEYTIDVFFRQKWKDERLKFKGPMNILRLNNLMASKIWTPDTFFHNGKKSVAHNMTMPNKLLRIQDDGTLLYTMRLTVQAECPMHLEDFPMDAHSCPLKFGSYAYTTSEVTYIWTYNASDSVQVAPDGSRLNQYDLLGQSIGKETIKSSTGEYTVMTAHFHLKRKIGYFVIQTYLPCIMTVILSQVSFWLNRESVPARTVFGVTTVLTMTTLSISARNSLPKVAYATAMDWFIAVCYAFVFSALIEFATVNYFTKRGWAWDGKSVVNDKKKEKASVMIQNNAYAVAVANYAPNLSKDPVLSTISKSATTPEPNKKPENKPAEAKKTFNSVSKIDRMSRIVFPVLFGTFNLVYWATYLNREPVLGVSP
Assay [3] has as its target T2, Androgen receptor (Rattus norvegicus, UniProt P15207).
T2 sequence (P15207 whole entry): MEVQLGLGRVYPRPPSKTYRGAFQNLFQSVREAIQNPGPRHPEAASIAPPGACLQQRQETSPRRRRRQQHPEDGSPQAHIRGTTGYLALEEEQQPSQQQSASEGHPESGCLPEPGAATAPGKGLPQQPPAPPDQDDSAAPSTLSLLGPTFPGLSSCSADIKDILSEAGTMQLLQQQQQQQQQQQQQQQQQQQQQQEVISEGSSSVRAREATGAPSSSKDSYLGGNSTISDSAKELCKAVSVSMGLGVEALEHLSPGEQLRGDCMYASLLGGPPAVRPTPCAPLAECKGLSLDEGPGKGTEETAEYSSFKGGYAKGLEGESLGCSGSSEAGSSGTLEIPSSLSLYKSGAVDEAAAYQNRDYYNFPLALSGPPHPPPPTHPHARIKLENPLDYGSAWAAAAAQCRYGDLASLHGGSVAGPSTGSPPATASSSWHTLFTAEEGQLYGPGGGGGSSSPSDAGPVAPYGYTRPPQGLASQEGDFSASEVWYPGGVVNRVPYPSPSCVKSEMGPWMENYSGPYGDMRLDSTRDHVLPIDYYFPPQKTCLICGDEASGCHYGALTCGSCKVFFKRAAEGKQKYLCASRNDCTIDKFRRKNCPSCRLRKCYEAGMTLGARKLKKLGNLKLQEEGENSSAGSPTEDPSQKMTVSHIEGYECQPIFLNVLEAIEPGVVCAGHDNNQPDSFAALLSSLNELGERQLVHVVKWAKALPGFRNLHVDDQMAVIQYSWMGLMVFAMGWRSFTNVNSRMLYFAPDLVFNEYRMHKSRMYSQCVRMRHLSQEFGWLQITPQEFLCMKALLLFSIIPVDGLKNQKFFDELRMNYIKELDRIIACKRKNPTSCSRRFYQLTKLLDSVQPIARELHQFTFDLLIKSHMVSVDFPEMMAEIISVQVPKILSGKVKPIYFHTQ
The assay is classed as functional.

Assay [4] has as its target Voltage-dependent L-type calcium channel subunit alpha-1C (Rattus norvegicus, UniProt P22002). The assay is classed as functional.
Assay [5] addresses T3, 5-hydroxytryptamine receptor 1A (Homo sapiens, UniProt P08908).
T3 sequence (P08908 whole entry): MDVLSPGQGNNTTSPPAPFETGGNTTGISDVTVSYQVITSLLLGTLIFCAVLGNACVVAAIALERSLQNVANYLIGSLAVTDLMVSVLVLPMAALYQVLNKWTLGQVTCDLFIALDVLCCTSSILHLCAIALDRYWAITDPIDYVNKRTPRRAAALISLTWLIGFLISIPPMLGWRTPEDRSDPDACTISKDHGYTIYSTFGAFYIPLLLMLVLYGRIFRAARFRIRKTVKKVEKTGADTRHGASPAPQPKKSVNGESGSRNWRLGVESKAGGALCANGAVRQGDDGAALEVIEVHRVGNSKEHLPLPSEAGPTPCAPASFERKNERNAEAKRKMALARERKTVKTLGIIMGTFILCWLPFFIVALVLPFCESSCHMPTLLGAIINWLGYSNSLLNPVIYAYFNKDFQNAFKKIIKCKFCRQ
The class given is functional, cell-based.

In assay [6] the target is 5-hydroxytryptamine receptor 2A (Homo sapiens, UniProt P28223). The assay is classed as functional, cell-based.
Sequence of 5-hydroxytryptamine receptor 2A (P28223 whole entry): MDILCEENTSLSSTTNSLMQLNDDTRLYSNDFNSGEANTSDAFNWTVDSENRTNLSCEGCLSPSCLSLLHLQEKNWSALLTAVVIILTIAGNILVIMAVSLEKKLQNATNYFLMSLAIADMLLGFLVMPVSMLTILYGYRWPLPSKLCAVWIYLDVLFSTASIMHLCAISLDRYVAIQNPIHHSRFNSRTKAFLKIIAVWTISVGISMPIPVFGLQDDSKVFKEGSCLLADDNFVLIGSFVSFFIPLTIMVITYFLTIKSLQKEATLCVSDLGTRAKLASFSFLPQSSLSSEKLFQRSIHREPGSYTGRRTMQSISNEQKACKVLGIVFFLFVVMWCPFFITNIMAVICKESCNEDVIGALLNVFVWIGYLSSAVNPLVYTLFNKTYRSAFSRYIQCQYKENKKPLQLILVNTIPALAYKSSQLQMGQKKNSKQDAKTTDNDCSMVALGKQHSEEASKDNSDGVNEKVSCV
For assay [7], the target named is Kappa-type opioid receptor (Homo sapiens, UniProt P41145).
Sequence of Kappa-type opioid receptor (P41145 whole entry): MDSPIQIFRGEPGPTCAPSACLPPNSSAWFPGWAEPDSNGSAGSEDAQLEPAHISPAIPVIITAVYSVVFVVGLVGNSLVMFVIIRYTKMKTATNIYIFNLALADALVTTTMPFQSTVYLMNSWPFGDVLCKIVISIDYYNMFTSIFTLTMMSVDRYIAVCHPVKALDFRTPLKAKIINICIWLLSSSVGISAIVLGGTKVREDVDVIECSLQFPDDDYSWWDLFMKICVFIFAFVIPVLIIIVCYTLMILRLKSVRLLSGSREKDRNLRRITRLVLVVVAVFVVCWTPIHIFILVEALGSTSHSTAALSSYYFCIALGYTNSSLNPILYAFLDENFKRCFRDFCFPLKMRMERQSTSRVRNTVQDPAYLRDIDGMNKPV
Another assay concerns the target Mu-type opioid receptor (Homo sapiens, UniProt P35372). In words: biochemical. The assay is classed as functional.
Assay [8] deals with T4, Equilibrative nucleoside transporter 1 (Homo sapiens, UniProt Q99808).
T4 sequence (Q99808 whole entry): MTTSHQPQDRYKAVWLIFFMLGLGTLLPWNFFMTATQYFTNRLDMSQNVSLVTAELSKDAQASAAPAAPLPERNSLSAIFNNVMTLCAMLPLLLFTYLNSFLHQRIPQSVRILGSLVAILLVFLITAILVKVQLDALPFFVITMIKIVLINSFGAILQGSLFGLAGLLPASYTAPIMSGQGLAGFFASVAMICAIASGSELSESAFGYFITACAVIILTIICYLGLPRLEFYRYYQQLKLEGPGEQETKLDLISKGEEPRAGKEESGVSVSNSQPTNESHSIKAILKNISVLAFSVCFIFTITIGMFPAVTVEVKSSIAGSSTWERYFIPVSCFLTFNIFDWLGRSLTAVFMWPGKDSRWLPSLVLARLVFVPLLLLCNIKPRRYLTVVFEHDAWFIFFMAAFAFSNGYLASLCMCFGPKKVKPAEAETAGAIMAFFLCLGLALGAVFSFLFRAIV

Some results are limits rather than exact numbers.
Note: assay procedure not described here.

Sequence of Voltage-dependent L-type calcium channel subunit alpha-1C (P22002 whole entry): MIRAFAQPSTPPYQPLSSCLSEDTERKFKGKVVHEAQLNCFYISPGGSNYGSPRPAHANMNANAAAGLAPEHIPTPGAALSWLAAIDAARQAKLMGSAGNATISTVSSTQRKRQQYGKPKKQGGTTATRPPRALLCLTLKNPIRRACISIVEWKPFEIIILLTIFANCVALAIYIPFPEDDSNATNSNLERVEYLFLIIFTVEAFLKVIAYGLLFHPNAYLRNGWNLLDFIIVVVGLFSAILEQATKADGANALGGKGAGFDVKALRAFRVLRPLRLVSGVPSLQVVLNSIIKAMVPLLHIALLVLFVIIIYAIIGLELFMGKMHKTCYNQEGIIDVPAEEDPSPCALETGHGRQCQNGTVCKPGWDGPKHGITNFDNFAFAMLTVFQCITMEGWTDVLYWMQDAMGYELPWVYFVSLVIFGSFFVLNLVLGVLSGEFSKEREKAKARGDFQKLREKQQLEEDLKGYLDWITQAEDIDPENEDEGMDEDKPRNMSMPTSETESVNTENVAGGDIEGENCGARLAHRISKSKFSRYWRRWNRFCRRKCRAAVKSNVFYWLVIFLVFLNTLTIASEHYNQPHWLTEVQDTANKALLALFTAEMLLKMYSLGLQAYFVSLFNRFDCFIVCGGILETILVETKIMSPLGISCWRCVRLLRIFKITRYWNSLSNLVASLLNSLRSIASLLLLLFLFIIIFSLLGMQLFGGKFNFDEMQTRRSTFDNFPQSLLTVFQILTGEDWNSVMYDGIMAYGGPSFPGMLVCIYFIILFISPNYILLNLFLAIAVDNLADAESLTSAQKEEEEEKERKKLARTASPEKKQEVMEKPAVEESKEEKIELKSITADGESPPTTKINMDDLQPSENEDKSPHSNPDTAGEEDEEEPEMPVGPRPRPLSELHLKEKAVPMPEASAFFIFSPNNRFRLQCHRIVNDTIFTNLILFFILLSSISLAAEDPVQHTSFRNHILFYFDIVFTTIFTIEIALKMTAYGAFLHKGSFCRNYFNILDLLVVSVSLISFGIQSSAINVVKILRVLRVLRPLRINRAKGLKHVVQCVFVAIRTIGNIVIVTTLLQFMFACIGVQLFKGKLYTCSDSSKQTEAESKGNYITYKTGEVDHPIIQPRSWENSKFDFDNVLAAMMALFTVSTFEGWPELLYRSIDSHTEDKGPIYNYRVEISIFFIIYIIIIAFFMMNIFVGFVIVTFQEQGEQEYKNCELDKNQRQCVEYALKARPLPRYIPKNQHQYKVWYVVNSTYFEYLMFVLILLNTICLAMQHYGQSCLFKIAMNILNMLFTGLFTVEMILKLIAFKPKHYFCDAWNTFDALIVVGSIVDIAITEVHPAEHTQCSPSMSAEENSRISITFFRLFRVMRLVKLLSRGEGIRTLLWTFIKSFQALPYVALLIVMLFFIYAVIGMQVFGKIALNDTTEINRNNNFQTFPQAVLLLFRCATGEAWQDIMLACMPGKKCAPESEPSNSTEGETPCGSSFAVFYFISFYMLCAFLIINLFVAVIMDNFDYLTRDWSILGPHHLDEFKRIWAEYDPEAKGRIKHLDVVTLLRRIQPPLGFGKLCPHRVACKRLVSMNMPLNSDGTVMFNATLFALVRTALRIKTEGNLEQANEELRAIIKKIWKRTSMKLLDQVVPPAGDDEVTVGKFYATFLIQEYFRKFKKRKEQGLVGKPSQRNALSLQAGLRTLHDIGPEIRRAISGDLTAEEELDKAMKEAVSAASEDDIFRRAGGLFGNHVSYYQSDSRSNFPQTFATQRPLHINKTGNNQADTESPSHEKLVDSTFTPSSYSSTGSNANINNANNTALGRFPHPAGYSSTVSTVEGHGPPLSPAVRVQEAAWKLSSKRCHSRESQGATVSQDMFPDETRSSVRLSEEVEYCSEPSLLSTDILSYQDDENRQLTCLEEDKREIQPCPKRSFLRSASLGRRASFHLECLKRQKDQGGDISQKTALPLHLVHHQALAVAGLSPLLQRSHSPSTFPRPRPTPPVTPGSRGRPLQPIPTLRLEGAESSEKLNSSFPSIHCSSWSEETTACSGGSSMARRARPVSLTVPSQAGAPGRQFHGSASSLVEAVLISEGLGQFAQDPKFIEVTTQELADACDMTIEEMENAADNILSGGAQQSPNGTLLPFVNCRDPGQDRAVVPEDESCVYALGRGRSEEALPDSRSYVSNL

In the case of `CN(C)c1ccc(C(=C2C=CC(=[N+](C)C)C=C2)c2ccc(N(C)C)cc2)cc1` [GENTIAN VIOLET], the results for the AC50 (on Androgen receptor [1]; in assay [2]) were more than 30 µM and more than 3 µM, respectively.
With HYDROXOCOBALAMIN, the AC50 at Androgen receptor [3] was more than 10 µM; in assay [4] it was more than 30 µM; in [5], more than 30 µM; in assay [6] it was more than 30 µM; in assay [7] it was more than 30 µM; on Mu-type opioid receptor it was more than 30 µM. Further, in assay [8], the AC50 was more than 30 µM.

What is called AC50 is the concentration at which the activity in the assay is half-maximal.
